{
  "source": "patent EP1708721B1",
  "about": "“MYOCARDIAL PERFUSION IMAGING USING ADENOSINE RECEPTOR AGONISTS” (Gilead Sciences, Inc., priority 2004, dated 2005)",
  "key": {"humans": {"test_system": "humans", "assay": "Example 1: open label study, CBFv by Doppler flow wire after IV bolus in catheterization patients", "type": "in vivo", "method": "(§1) The purpose of this open label study was to determine the magnitude and duration of effect of CVT-3146 (10-500 µg) on CBFv in humans.\nMETHODS: Patients undergoing a clinically indicated coronary catheterization with no more than a 70% stenosis in any coronary artery and no more than a 50% stenosis of the study vessel had CBFv determined by Doppler flow wire. Study subject were selected after measuring baseline and peak CBFv after an intracoronary (IC) injection of 18 µg of Ado. Twenty-three patients, who were identified as meeting the study criteria of having a peak to baseline CBFv ratio of ≥ 2.5 in response to Adenosine, received a rapid (≤ 10 sec) peripheral IV bolus of CVT-3146; Doppler signals were stable and interpretable over the time-course of the increase in CBFv in 17 patients."}, "[1]": {"assay": "half-life of CVT-3146 (background statement)", "conditions": "in vivo; species not stated; read-out: initial half-life", "method": "as §1"}, "[2]": {"test_system": "subjects (27 men, 9 women)", "assay": "Example 7: pharmacologic stress myocardial perfusion imaging protocol, adverse effects and hemodynamics", "type": "in vivo, human", "description": "36 subjects (27 men, 9 women; 67±10 years) were studied with two doses of CVT-3146 [400 mcg (n=18), 500 mcg (n=18)], administered as an IV bolus, as part of a pharmacologic stress myocardial perfusion imaging protocol."}, "human subjects": {"test_system": "human subjects", "assay": "Example 2: dose range study, coronary flow velocity, heart rate and blood pressure after IV bolus", "type": "in vivo", "method": "The study included patients undergoing a clinically indicated coronary catheterization with no more than a 70% stenosis in any coronary artery and no more than a 50% stenosis of the study vessel had CBFv determined by Doppler flow wire. Study subject were selected after measuring baseline and peak CBFv after an intracoronary (IC) injection of 18 µg of Ado. 36 subjects were identified as meeting the study criteria of having a peak to baseline CBFv ration of ≥ 2.5 in response to Adenosine,\nCVT-3146 was administered to the study subjects by IV bolus in less that 10 seconds in amounts ranging from 10 µg to 500 µg.\nThe effectiveness of both compounds was measured by monitoring coronary flow velocity. Other coronary parameters that were monitored included heart rate and blood pressure. These parameters were measured in order to evaluate the time to peak dose response, the magnitude of the dose response and the duration of the dose response. Adverse events were also monitored. Coronary blood flow velocity was measured at the left anterior descending coronary artery (LAD) or left circumflex coronary artery (LCx). The velocity measurements were taken by following standard heart catheterization techniques and inserting a 0.014 inch Doppler-tipped Flowire into the LAD or LCx vessel and thereafter monitoring blood flow velocity. In addition, hemodynamic and electrocardiographic measurements were recorded continuously.\nOverall, 36 human subjects (n=36) were evaluated. Of the 36, 18 were female and 18 were male. Their mean age was 53.4 and they ranged from 24-72 years in age. Of the 36 subjects evaluated, the LAD vessel of 31 subjects was monitored, and the LCx vessel of 5 subjects was monitored. The following doses (µg) of CVT-3146 were given to the subjects in a single iv bolus: 10 (n=4); 30 (n=6); 100 (n=4); 300 (n=7); 400 (n=9); 500 (n=6)."}, "anesthetized dog": {"test_system": "anesthetized dog", "assay": "Example 4: blood flow velocity in various vascular beds, intravascular Doppler catheter", "type": "in vivo", "conditions": "1.0 µg/kg intravenous bolus", "description": "The effects of CVT-3146 were quantified as the average peak blood flow velocity (APV) using intravascular Doppler transducer tipped catheter. Heart rate (HR) and systemic arterial blood pressure (BP) were also monitored. […] Increased blood flow velocity was associated with a small transient increase in HR (16 bpm) and decrease in BP (12 mmHg)."}, "awake dogs": {"test_system": "awake dogs", "assay": "Example 8: vasodilator effects in different vascular beds of chronically instrumented dogs", "type": "in vivo", "description": "In this study the vasodilator effects of CVT-3146 were compared to those of ADO in different vascular beds in awake dogs. Dogs were chronically instrumented for measurements of the blood flow in coronary (CBF), mesenteric (MBF), hind limb (LBF), and renal (RBF) vascular beds, and hemodynamics."}, "[3]": {"conditions": "peak hemodynamic changes, mean±S.D., 400 and 500 mcg"}},
  "data": [
    {"smiles": "CNC(=O)c1cnn(-c2nc(N)c3ncn([C@@H]4O[C@H](CO)[C@@H](O)[C@H]4O)c3n2)c1", "note": "[CVT-3146, (1-{9-[(4S,2R,3R,5R)-3,4-dihydroxy-5-(hydroxymethyl)oxolan-2-yl]-6-aminopurin-2-yl}pyrazol-4-yl)-N-methylcarboxamide]", "values": [
      {"measurement": "duration of CBFv augmentation (≥ 2-fold increase in CBFv)", "setting": "humans; 300 µg IV bolus", "result": "4.0 ± 4.9", "unit": "min"},
      {"measurement": "duration of CBFv augmentation (≥ 2-fold increase in CBFv)", "setting": "humans; 500 µg IV bolus", "result": "6.9 ± 7.6", "unit": "min"},
      {"measurement": "maximal decrease in systolic blood pressure (BP)", "setting": "humans; 500 µg IV bolus (n=3)", "result": "8.7 ± 7.6"},
      {"measurement": "maximal increase in heart rate (HR)", "setting": "humans; 500 µg IV bolus (n=3)", "result": "18.7 ± 4.0"},
      {"measurement": "Adverse events (AEs)", "setting": "humans; 3 patients receiving the 500 µg dose", "result": "No AEs were noted"},
      {"measurement": "Adverse events (AEs)", "setting": "humans; 10-500 µg IV bolus, nausea, flushing, headache, mild and self-limited", "result": "infrequent"},
      {"measurement": "peak to baseline ratio (CBFv)", "setting": "humans; IV bolus, doses of 100 µg (n=3), 300 µg (n=4) and 500 µg (n=2), mean ± SD", "result": "3.2 ± 0.6"},
      {"measurement": "half-life", "setting": "[1]", "result": 3, "unit": "min"},
      {"measurement": "ST abnormalities developed", "setting": "[2]; 36 subjects", "result": 7, "unit": "pts"},
      {"measurement": "T wave abnormalities developed", "setting": "[2]; 36 subjects", "result": 5, "unit": "pts"},
      {"measurement": "Flushing", "setting": "[2]; 400-mcg group", "result": 17, "unit": "%"},
      {"measurement": "dizziness", "setting": "[2]; 400-mcg group", "result": 11, "unit": "%"},
      {"measurement": "dyspnea", "setting": "[2]; 400-mcg group", "result": 17, "unit": "%"},
      {"measurement": "mean change in HR response", "setting": "[2]; 400 mcg dose", "result": 34.8, "unit": "%"},
      {"measurement": "Flushing", "setting": "[2]; 500-mcg group", "result": 44, "unit": "%"},
      {"measurement": "dizziness", "setting": "[2]; 500-mcg group", "result": 28, "unit": "%"},
      {"measurement": "dyspnea", "setting": "[2]; 500-mcg group", "result": 44, "unit": "%"},
      {"measurement": "mean change in HR response", "setting": "[2]; 500 mcg dose", "result": 44.2, "unit": "%"},
      {"measurement": "BP changes deviated from baseline", "setting": "[2]; Thirty min after CVT-3146", "result": "< 2", "unit": "%"},
      {"measurement": "HR remained above baseline by", "setting": "[2]; Thirty min after CVT-3146", "result": 8.6, "unit": "%"},
      {"measurement": "abdominal pain", "setting": "[2]; both doses, 36 subjects", "result": 11, "unit": "%"},
      {"measurement": "chest discomfort", "setting": "[2]; both doses, 36 subjects", "result": 33, "unit": "%"},
      {"measurement": "headache", "setting": "[2]; both doses, 36 subjects", "result": 25, "unit": "%"},
      {"measurement": "systolic BP did not fall below", "setting": "[2]; either dose", "result": "≥ 90", "unit": "mmHg"},
      {"measurement": "serious AE occurred", "setting": "[2]; exacerbation of a migraine headache, required hospitalization", "result": "One"},
      {"measurement": "2nd or 3rd degree AV block", "setting": "[2]; in vivo", "result": "No 2nd or 3rd degree AV block was noted"},
      {"measurement": "serious arrhythmias", "setting": "[2]; in vivo", "result": "no serious arrhythmias"},
      {"measurement": "time of peak hemodynamic effect, diastolic BP", "setting": "[2]; in vivo", "result": 8, "unit": "min"},
      {"measurement": "time of peak hemodynamic effect, heart rate (HR)", "setting": "[2]; in vivo", "result": "≤ 0.033", "unit": "h"},
      {"measurement": "time of peak hemodynamic effect, systolic blood pressure (BP)", "setting": "[2]; in vivo", "result": 4, "unit": "min"},
      {"measurement": "Diastolic BP, Absolute Change", "setting": "[2]; [3]", "result": "-5.4±7.2", "unit": "mmHg"},
      {"measurement": "Diastolic BP, Relative Change", "setting": "[2]; [3]", "result": "-7.9%±10.5%"},
      {"measurement": "Heart Rate, Absolute Change", "setting": "[2]; [3]", "result": "+21.9±10.4 beats per min"},
      {"measurement": "Heart Rate, Relative Change", "setting": "[2]; [3]", "result": "+36.7%+21.0%"},
      {"measurement": "Systolic BP, Absolute Change", "setting": "[2]; [3]", "result": "-5.9±10.7", "unit": "mmHg"},
      {"measurement": "Systolic BP, Relative Change", "setting": "[2]; [3]", "result": "4.1%±7.6%"},
      {"measurement": "AEs mild to moderate", "setting": "[2]; share of AEs", "result": 96, "unit": "%"},
      {"measurement": "AEs resolved within 15 min without treatment", "setting": "[2]; share of AEs", "result": 91, "unit": "%"},
      {"measurement": "Maximum decrease in diastolic BP", "setting": "human subjects; 400 µg IV bolus", "result": "10 ± 5", "unit": "mmHg"},
      {"measurement": "Maximum decrease in systolic BP", "setting": "human subjects; 400 µg IV bolus", "result": "20 ± 8", "unit": "mmHg"},
      {"measurement": "Maximum increase in heart rate", "setting": "human subjects; 400 µg IV bolus", "result": "18 ± 8", "unit": "bpm"},
      {"measurement": "time coronary blood flow velocity ≥ 2.5-fold above baseline was maintained", "setting": "human subjects; 400 µg IV bolus", "result": 2.8, "unit": "min"},
      {"measurement": "time of maximum decrease in diastolic BP after dosing", "setting": "human subjects; 400 µg IV bolus", "result": "about 1 minute"},
      {"measurement": "time of maximum increase in heart rate after dosing", "setting": "human subjects; 400 µg IV bolus", "result": "about 1 minute"},
      {"measurement": "amount at which plateau peak velocity is reached", "setting": "human subjects; IV bolus", "result": "less than 100 µg"},
      {"measurement": "amount that increases peak flow velocity (as low as)", "setting": "human subjects; IV bolus", "result": 10, "unit": "µg"},
      {"measurement": "time at which peak flow was reached", "setting": "human subjects; all doses (10 to 500 µg IV bolus)", "result": "about 30 seconds"},
      {"measurement": "peak effects", "setting": "human subjects; doses above about 100 µg", "result": "equivalent to 18 µg adenosine administered IC"},
      {"measurement": "decrease in BP", "setting": "anesthetized dog", "result": 12, "unit": "mmHg"},
      {"measurement": "small transient increase in HR", "setting": "anesthetized dog", "result": 16, "unit": "bpm"},
      {"measurement": "time to dissipation of effect on blood flow velocity", "setting": "anesthetized dog", "result": "less than ten"},
      {"measurement": "time to peak of effect on blood flow velocity", "setting": "anesthetized dog", "result": "less than 30 sec"},
      {"measurement": "APV increased (average peak blood flow velocity)", "setting": "anesthetized dog; brain arterial vasculature (BA)", "result": "1.4 ± 0.1", "unit": "fold"},
      {"measurement": "APV increased (average peak blood flow velocity)", "setting": "anesthetized dog; forelimb artery (FA)", "result": "1.2 ± 0.1", "unit": "fold"},
      {"measurement": "APV increased (average peak blood flow velocity)", "setting": "anesthetized dog; left circumflex coronary artery (LCX)", "result": "3.1 ± 0.2", "unit": "fold"},
      {"measurement": "APV increased (average peak blood flow velocity)", "setting": "anesthetized dog; pulmonary artery (PA)", "result": "1.1 ± 0.01", "unit": "fold"},
      {"measurement": "duration for CBF above 2-fold of the baseline", "setting": "awake dogs; 2.5 µg/kg", "result": "130 ± 19", "unit": "s"},
      {"measurement": "increase in LBF (hind limb blood flow)", "setting": "awake dogs; Figure 18, mean ± SE, n=6, compared with ADO", "result": "smaller increase in LBF than ADO"}
    ]}
  ]
}
